The results in this text go back to patent US8455497B2, “Inhibitors of aspartyl protease” (Vertex Pharmaceuticals Incorporated, priority 1999, dated 2013).

The subject of experiment [1] is HIV-1 (strain IIIB). Put plainly: Antiviral activity assay in MT4 cells (propidium iodide based). The settings on record: Human immunodeficiency virus 1, IIIB; wild type HIV-1 virus, MT4 cells; read-out: Wildtype virus - IC50. The experiment is classed as cell-based. In short, it runs like this:
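Compound serial dilutions in RPMI/FCS received MT4 cells pre-infected 1 hr at 37°C with HIV-1 IIIB at 100×TCID50. After 5 days' culture and Nonidet-40 lysis, well DNA content was measured by propidium iodide dye; mock-infected cells served as control.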

Experiment [2] deals with D545701-14 multi protease inhibitor resistant virus. Put plainly: Anti-viral activity against resistant virus D545701-14 in MT4 cells. The class given is cell-based, HIV-1. The settings on record: Human immunodeficiency virus 1, MT4, read-out: D545701-14 mutant - IC50, D545701-14 multi protease inhibitor resistant virus, MT4 cells.
Experiment [3] has as its system EP13 multi protease inhibitor resistant virus. Briefly: Anti-viral activity against resistant virus EP13 in MT4 cells. The experiment is classed as cell-based, HIV-1. The settings on record: Human immunodeficiency virus 1, MT4, read-out: EP13 mutant IC50, EP13 multi protease inhibitor resistant virus, MT4 cells. In short, it runs like this: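 MT4 cells infected for 1 h at 37 °C, MOI 100×TCID50, then diluted 6-fold onto pre-diluted compound and cultured 5 days (5% CO2). Viable-cell DNA content estimated by propidium iodide. EP13 carries protease mutations M46I, L63P, A71V, V82F/L, I84V, no RT mutations.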

A word on the IC50: it is the concentration at which inhibition is half-maximal. For `CC(C)CN(C[C@@H](O)[C@H](Cc1ccc(OC(=O)NCCn2ccnc2)cc1)NC(=O)O[C@H]1CO[C@H]2OCC[C@H]21)S(=O)(=O)c1ccc2c(c1)OCO2` [Compound 313, (3R,3aS,6aR)-Hexahydrofuro[2,3-b]furan-3-yl (1S,2R)-3-[(1,3-benzodioxol-5-ylsulfonyl)(isobutyl)amino]-2-hydroxy-1-{4-[({[2-(1H-imidazol-1-yl)ethyl]amino}carbonyl)oxy]benzyl}propylcarbamate], the IC50 was in the range of 10 to 100 nM in experiment [1], 1 to 10 nM in experiment [2] and 1 to 10 nM in experiment [3].

Regarding `CC(C)CN(C[C@@H](O)[C@H](Cc1ccc(OCC(N)=O)cc1)NC(=O)O[C@H]1CO[C@H]2OCC[C@H]21)S(=O)(=O)c1ccc2c(c1)OCO2` [Compound 314, (3R,3aS,6aR)-Hexahydrofuro[2,3-b]furan-3-yl (1S,2R)-1-[4-(2-amino-2-oxoethoxy)benzyl]-3-[(1,3-benzodioxol-5-ylsulfonyl)(isobutyl)amino]-2-hydroxypropylcarbamate], the IC50 in experiment [1], in experiment [2] and in experiment [3] was 10 to 100 nM each time.

With `CNC(=O)COc1ccc(C[C@H](NC(=O)O[C@H]2CO[C@H]3OCC[C@H]32)[C@H](O)CN(CC(C)C)S(=O)(=O)c2ccc3c(c2)OCO3)cc1` [Compound 315, (3R,3aS,6aR)-Hexahydrofuro[2,3-b]furan-3-yl (1S,2R)-3[(1,3-benzodioxol-5-ylsulfonyl)(isobutyl)amino]-2-hydroxy-1-{4-[2-(methylamino)-2-oxoethoxy]benzyl}propylcarbamate], the results for the IC50 in experiment [1], in experiment [2] and in experiment [3] were 10 to 100 nM, 1 to 10 nM and 1 to 10 nM, respectively.

For `CC(C)CN(C[C@@H](O)[C@H](Cc1ccc(OCCCCO)cc1)NC(=O)O[C@H]1CO[C@H]2OCC[C@H]21)S(=O)(=O)c1ccc2c(c1)OCO2` [Compound 317, (3R,3aS,6aR)-Hexahydrofuro[2,3-b]furan-3-yl (1S,2R)-3-[(1,3-benzodioxol-5-ylsulfonyl)(isobutyl)amino]-2-hydroxy-1-[4-(4-hydroxybutoxy)benzyl]propylcarbamate], the IC50 in experiment [1], in experiment [2] and in experiment [3] was 1 to 10 nM throughout.

In the case of `CNC(=O)OCCCCOc1ccc(C[C@H](NC(=O)O[C@H]2CO[C@H]3OCC[C@H]32)[C@H](O)CN(CC(C)C)S(=O)(=O)c2ccc3c(c2)OCO3)cc1` [Compound 318, (3R,3aS,6aR)-Hexahydrofuro[2,3-b]furan-3-yl (1S,2R)-3-[(1,3-benzodioxol-5-ylsulfonyl)(isobutyl)amino]-2-hydroxy-1-[4-(4-{[(methylamino)carbonyl]oxy}butoxy)benzyl]propylcarbamate], the IC50 in experiment [1], in experiment [2] and in experiment [3] was 1 to 10 nM throughout.

Turning to `CC(C)CN(C[C@@H](O)[C@H](Cc1ccc(OCCCO)cc1)NC(=O)O[C@H]1CO[C@H]2OCC[C@H]21)S(=O)(=O)c1ccc2c(c1)OCO2` [Compound 319, (3R,3aS,6aR)-Hexahydrofuro[2,3-b]furan-3-yl (1S,2R)-3-[(1,3-benzodioxol-5-ylsulfonyl)(isobutyl)amino]-2-hydroxy-1-[4-(3-hydroxypropoxy)benzyl]propylcarbamate], the IC50 in experiment [1], in experiment [2] and in experiment [3] was 1 to 10 nM in each case.

For `CNC(=O)OCCCOc1ccc(C[C@H](NC(=O)O[C@H]2CO[C@H]3OCC[C@H]32)[C@H](O)CN(CC(C)C)S(=O)(=O)c2ccc3c(c2)OCO3)cc1` [Compound 320, (3R,3aS,6aR)-Hexahydrofuro[2,3-b]furan-3-yl (1S,2R)-3[(1,3-benzodioxol-5-ylsulfonyl)(isobutyl)amino]-2-hydroxy-1-[4-(3-{[(methylamino)carbonyl]oxy}propoxy)benzyl]propylcarbamate], the IC50 in experiment [1], in experiment [2] and in experiment [3] was 1 to 10 nM throughout.

For `CC(C)CN(C[C@@H](O)[C@H](Cc1ccc(OCCCOC(N)=O)cc1)NC(=O)O[C@H]1CO[C@H]2OCC[C@H]21)S(=O)(=O)c1ccc2c(c1)OCO2` [Compound 321, (3R,3aS,6aR)-Hexahydrofuro[2,3-b]furan-3-yl (1S,2R)-1-(4-{3-[(aminocarbonyl)oxy]propoxy}benzyl)-3-[(1,3-benzodioxol-5-ylsulfonyl)(isobutyl)amino]-2-hydroxypropylcarbamate], the IC50 in experiment [1], in experiment [2] and in experiment [3] was 1 to 10 nM throughout.

On to `CC(C)CN(C[C@@H](O)[C@H](Cc1ccc(OCCO)cc1)NC(=O)O[C@H]1CO[C@H]2OCC[C@H]21)S(=O)(=O)c1ccc2c(c1)OCO2` [Compound 322, (3R,3aS,6aR)-Hexahydrofuro[2,3-b]furan-3-yl (1S,2R)-3-[(1,3-benzodioxol-5-ylsulfonyl)(isobutyl)amino]-2-hydroxy-1-[4-(2-hydroxyethoxy)benzyl]propylcarbamate], for which the IC50 in experiment [1], in experiment [2] and in experiment [3] was 1 to 10 nM each time.

With `CNC(=O)OCCOc1ccc(C[C@H](NC(=O)O[C@H]2CO[C@H]3OCC[C@H]32)[C@H](O)CN(CC(C)C)S(=O)(=O)c2ccc3c(c2)OCO3)cc1` [Compound 323, (3R,3aS,6aR)-Hexahydrofuro[2,3-b]furan-3-yl (1S,2R)-3-[(1,3-benzodioxol-5-ylsulfonyl)(isobutyl)amino]-2-hydroxy-1-[4-(2-{[(methylamino)carbonyl]oxy}ethoxy)benzyl]propylcarbamate], the IC50 in experiment [1], in experiment [2] and in experiment [3] was 1 to 10 nM throughout.

Regarding `CC(C)CN(C[C@@H](O)[C@H](Cc1ccc(OCCN2CCSC2)cc1)NC(=O)O[C@H]1CO[C@H]2OCC[C@H]21)S(=O)(=O)c1ccc2c(c1)OCO2` [Compound 324, (3R,3aS,6aR)-Hexahydrofuro[2,3-b]furan-3-yl (1S,2R)-3-[(1,3-benzodioxol-5-ylsulfonyl)(isobutyl)amino]-2-hydroxy-1-{4-[2-(1,3-thiazolidin-3-yl)ethoxy]benzyl}propylcarbamate], the IC50 in experiment [1], in experiment [2] and in experiment [3] was 1 to 10 nM throughout.

As to `CCOC(=O)COc1ccc(C[C@H](NC(=O)O[C@H]2CO[C@H]3OCC[C@H]32)[C@H](O)CN(CC(C)C)S(=O)(=O)c2ccc3c(c2)OCO3)cc1` [Compound 326, Ethyl (4-{(2S,3R)-2-({[(3R,3aS,6aR)-hexahydrofuro[2,3-b]furan-3-yloxy]carbonyl}amino)-4-[(1,3-benzodioxol-5-ylsulfonyl)(isobutyl)amino]-3-hydroxybutyl}phenoxy) acetate], the IC50 in experiment [1] is 1 to 10 nM; in experiment [2], 10 to 100 nM; in experiment [3] it was 10 to 100 nM.

Turning to `CCC(CC)ON(C[C@@H](O)[C@H](Cc1ccc(OCc2ccccc2)cc1)NC(=O)O[C@H]1CO[C@H]2OCC[C@H]21)S(=O)(=O)c1ccc2c(c1)OCO2` [Compound 329, (3R,3aS,6aR)-Hexahydrofuro[2,3-b]furan-3-yl (1S,2R)-3-[(1,3-benzodioxol-5-ylsulfonyl)(1-ethylpropoxy)amino]-1-[4-(benzyloxy)benzyl]-2-hydroxypropylcarbamate], the IC50 was in the range of 1 to 10 nM in experiment [1], 10 to 100 nM in experiment [2] and 10 to 100 nM in experiment [3].

For the compound `CC(C)CN(C[C@@H](O)[C@H](Cc1ccc(OC(=N)N(C)C)cc1)NC(=O)O[C@H]1CO[C@H]2OCC[C@H]21)S(=O)(=O)c1ccc2c(c1)OCO2` [Compound 331, (3R,3aS,6aR)-Hexahydrofuro[2,3-b]furan-3-yl (1S,2R)-3-[(1,3-benzodioxol-5-ylsulfonyl)(isobutyl)amino]-1-{4-[(dimethylamino) (imino)methoxy]benzyl}-2-hydroxypropylcarbamate], the IC50 in experiment [1], in experiment [2] and in experiment [3] was 10 to 100 nM each time.

Regarding `CC(C)CN(C[C@@H](O)[C@H](Cc1ccc(Oc2nc(F)c(F)c(F)c2F)cc1)NC(=O)O[C@H]1CO[C@H]2OCC[C@H]21)S(=O)(=O)c1ccc2c(c1)OCO2` [Compound 332, (3R,3aS,6aR)-hexahydrofuro[2,3-b]furan-3-yl (1S,2R)-3-[(1,3-benzodioxol-5-ylsulfonyl)(isobutyl)amino]-2-hydroxy-1-{4-[(3,4,5,6-tetrafluoro-2-pyridinyl)oxy]benzyl}propylcarbamate], the IC50 fell in the range of 1 to 10 nM in experiment [1], 10 to 100 nM in experiment [2] and 1 to 10 nM in experiment [3].

With `CC(C)CN(C[C@@H](O)[C@H](Cc1ccc(Oc2ccc([N+](=O)[O-])cn2)cc1)NC(=O)O[C@H]1CO[C@H]2OCC[C@H]21)S(=O)(=O)c1ccc2c(c1)OCO2` [Compound 333, (3R,3aS,6aR)-hexahydrofuro[2,3-b]furan-3-yl (1S,2R)-3-[(1,3-benzodioxol-5-ylsulfonyl)(isobutyl)amino]-2-hydroxy-1-{4-[(5-nitro-2-pyridinyl)oxy]benzyl}propylcarbamate], the IC50 in experiment [1], in experiment [2] and in experiment [3] was 1 to 10 nM in each case.

For `CC(C)CN(C[C@@H](O)[C@H](Cc1ccc(Oc2c(C(=O)O)cc([N+](=O)[O-])cc2[N+](=O)[O-])cc1)NC(=O)O[C@H]1CO[C@H]2OCC[C@H]21)S(=O)(=O)c1ccc2c(c1)OCO2` [Compound 334, 2-(4-{(2S,3R)-2-({[(3R,3aS,6aR)-hexahydrofuro[2,3-b]furan-3-yloxy]carbonyl}amino)-4-[(1,3-benzodioxol-5-ylsulfonyl)(isobutyl)amino]-3-hydroxybutyl}phenoxy)-3,5-dinitrobenzoic Acid], the IC50 in experiment [1], in experiment [2] and in experiment [3] was 1 to 10 nM in each case.
